How the values were obtained:
[1] = Activity of superoxide dismutase mimetic toward hydrogen peroxide (selectivity); format: biochemical
[2] = test system: CT26 mouse colon tumor; experiment: Mouse colon tumor model, first experiment (CT26 fragments implanted in BALB/c mice); format: in vivo; details: SOD mimetic 6 mg/kg IP twice daily from day 6, combined with gemcitabine 80 mg/kg IP on days 6, 9, 12, 15; compared with gemcitabine alone
Procedure: A. In a first experiment, fragments of CT26 mouse colon tumor were implanted in female BALB/c mice and allowed to grow for 6 days to a size of about 110 mg (107-115 mg).
On this day, day 6, mice were administered 6 mg/kg of KM4403 or KM4419 intraperitoneally (IP) and dosing was continued twice daily for the duration of the study.
In some groups, gemcitabine was administered on days 6, 9, 12 and 15 at a dosage of 80 mg/kg, also via IP, 10 minutes after the administration of KM4403 or KM4419.

[3] = combination with interleukin-2; Samlowski et al., Nature Medicine (2003); cited from earlier work
[4] = test system: C26 colon tumor; experiment: Mouse colon tumor model, second experiment (C26 fragments implanted in BALB/c mice); format: in vivo; details: KM4419 10 mg/kg or 20 mg/kg twice daily from day 7, combined with gemcitabine 120 mg/kg IP on days 7, 13, 16, both KM4419 dosage levels, FIG. 1
Procedure: B. In a second experiment, fragments of C26 colon tumor were implanted in female BALB/c mice and grown until day 7 at which point they averaged 123 mg.
Groups 1 and 2 (n=8) were given 10 mg/kg or 20 mg/kg of KM4419 twice daily starting at day 7.
In groups 3 and 4 (n=8), gemcitabine was administered at 120 mg/kg or 160 mg/kg IP on days 7, 13 and 16.
In groups 5 and 6 (n=8), both gemcitabine and KM4419 were administered according to the foregoing regimens. Gemcitabine was administered 10 minutes after KM4419 in these groups. The levels of KM4419 were 10 mg/kg and 20 mg/kg, respectively, and the dose of gemcitabine was 120 mg/kg.

[5] = test system: human A549 non-small lung carcinoma cells; experiment: Non-small cell lung cancer tumor model (A549 cells implanted into flanks of BALB/c mice); format: in vivo; details: KM4419 30 mg/kg IP on days 9-23, combined with paclitaxel 12.5 mg/kg IP on days 9 and 13; compared with either drug alone; FIG. 2
Procedure: In a manner similar to that of Example 1, human A549 non-small lung carcinoma cells were implanted into the flanks of female BALB/c mice, and the tumors were allowed to grow until day 9. Group 1 was administered only vehicle. Group 2 (n=10) was administered only paclitaxel at 12.5 mg/kg IP on days 9 and 13. In group 3 (n=10), the mice were administered 30 mg/kg of KM4419 IP on days 9-23. In group 4 (n=10), a combination of these protocols was administered.

Compound	activity toward hydrogen peroxide [1]	tumor size [2]	also measured
manganese [III] tetrakis-(5,10,15,20)-benzoic acid porphyrin [MnTBAP]	significant activity		
[Cl][Mn-5]1234([Cl])[n+]5c6cccc5C[NH+]1[C@@H]1CCCC[C@H]1[NH+]2CC[NH+]3[C@@H]1CCCC[C@H]1[NH+]4C6 (stereo partly drawn) [KM4403]		decreased tumor size	antitumor effect of IL-2 in combination treatment [3]: potentiates the antitumor effect of IL-2
[Cl][Mn-5]1234([Cl])[n+]5c6cccc5C[NH+]1[C@H]1CCCC[C@@H]1[NH+]2CC[NH+]3[C@H]1CCCC[C@@H]1[NH+]4C6 (stereo partly drawn) [KM4419]		decreased tumor size	tumor recurrence [4]: delayed recurrence; tumor size ([4]; compared with gemcitabine alone): decreased the tumor size more effectively than gemcitabine alone; effectiveness on tumor growth [5]: more effective than either drug taken alone
CC(C)c1cc(C(=O)O)c([O-])c(C(C)C)c1.CC(C)c1cc(C(=O)O)c([O-])c(C(C)C)c1.[Cu+2] [CuDIPS, copper [II] diisopropylsalicylate]	significant activity		
mangafodipir	significant activity		

Source: patent publication US9198893B2, “Combination antitumor therapy” (GALERA LABS, LLC, priority 2008, dated 2015)
